Measurements as given in US9271978B2 (Zenith Epigenetics Corp., priority 2012, dated 2016).

Key:
[1] = molecular target: T1, Brd4 bromodomain 1 (BRD4(1)) (Homo sapiens, UniProt O60885); test: Inhibition of tetra-acetylated histone H4 binding to Brd4 bromodomain 1 (TR-FRET); parameters: key: Active: Compounds with an IC50 value less than 30 μM were deemed to be active.; Not Active: Compounds with an IC50 value less than 30 μM were deemed to be active; conditions: tetra-acetylated histone H4 peptide, active = IC50 <30 μM
T1 construct: Illustrative results with the first bromodomain of Brd4; made in house; host or cells: E. coli BL21 (DE3)
Summary of the method: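 N-terminally His-tagged bromodomains (200 nM), expressed in E. coli, were incubated with biotinylated tetra-acetylated histone H4 peptide (25-50 nM), Eu-cryptate streptavidin and XL665 anti-His antibody in HEPES pH 7.4 buffer with KF, 0.2% DMSO, 2 h at room temperature. Inhibition read as decreased 665/620 nm TR-FRET; IC50 from dose-response curves.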

[2] = tested on: c-myc; test: Inhibition of c-myc expression in MV4-11 cells (mRNA, real-time PCR); type: cell-based; parameters: key: Active: Compounds with an IC50 value less than 30 μM were deemed to be active.; Not Active: Compounds with an IC50 value less than 30 μM were deemed to be active; conditions: Human AML MV4-11 cells, 3 h incubation
Summary of the method: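 MV4-11 cells (2.5×10^4) treated with compound or 0.1% DMSO for 3 h at 37 °C. c-myc mRNA measured by RT real-time PCR duplexed with cyclophilin. IC50 from dose–response curve.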

[3] = tested on: ApoA-I mRNA; test: Up-regulation of hApoA-1 mRNA transcription in Huh7 cells; type: cell-based, human; parameters: key: Active: Compounds with an EC170 value less than 30 μM were deemed to be active; conditions: 48 h treatment, ApoA-I mRNA by real-time PCR, Active = EC170 less than 30 μM
Summary of the method: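 Huh7 cells treated with compound for 48 h. ApoA-I mRNA was then quantified in captured mRNA by one-step real-time RT-PCR. Fold induction calculated from Ct values relative to the matching DMSO control; EC170 is the concentration for 170% of control expression.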

[4] = tested on: human AML MV-4-11 (CRL-9591) cells; test: Inhibition of cell proliferation in MV4-11 cells; type: cell-based; parameters: key: Active: Compounds with an IC50 value less than 30 μM were deemed to be active.; Not Active: Compounds with an IC50 value less than 30 μM were deemed to be active; conditions: human AML MV-4-11 cells, 72 h; active = IC50 <30 μM
Summary of the method: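 Exponentially growing MV-4-11 cells (5×10^4/well) were treated immediately with two-fold dilutions of compound from 30 μM to 0.2 μM, in triplicate, for 72 h at 37° C, 5% CO2. Viability was measured by MTS absorbance at 490 nm after 3–4 h. Proliferation relative to DMSO after blank correction gave IC50.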

Cc1noc(C)c1-c1ccc(=O)n(Cc2ccccc2)c1 [Example 56, 1-Benzyl-5-(3,5-dimethylisoxazol-4-yl)pyridin-2(1H)-one]
Active: FRET activity (IC50 <30 μM) BRD4(1) [1] | c-myc activity (IC50 <30 μM) [2] | ApoA-1 activity (EC170 <30 μM) [3] | Cell Proliferation activity (IC50 <30 μM) [4]

Cc1noc(C)c1-c1cc(N)c(=O)n(Cc2ccccc2)c1 [Example 73, 3-Amino-1-benzyl-5-(3,5-dimethylisoxazol-4-yl)pyridin-2(1H)-one]
Active: FRET activity (IC50 <30 μM) BRD4(1) [1] | c-myc activity (IC50 <30 μM) [2] | ApoA-1 activity (EC170 <30 μM) [3] | Cell Proliferation activity (IC50 <30 μM) [4]

Cc1noc(C)c1-c1ccc(=O)n(Cc2ccc(Cl)cc2)c1 [Example 128, 1-(4-Chlorobenzyl)-5-(3,5-dimethylisoxazol-4-yl)pyridin-2(1H)-one]
Active: FRET activity (IC50 <30 μM) BRD4(1) [1] | c-myc activity (IC50 <30 μM) [2] | ApoA-1 activity (EC170 <30 μM) [3] | Cell Proliferation activity (IC50 <30 μM) [4]

Cc1noc(C)c1-c1ccc(=O)n([C@H](C)c2ccccc2)c1 [Example 134, (R)-5-(3,5-Dimethylisoxazol-4-yl)-1-(1-phenylethyl)pyridin-2(1H)-one]
Active: FRET activity (IC50 <30 μM) BRD4(1) [1] | c-myc activity (IC50 <30 μM) [2] | ApoA-1 activity (EC170 <30 μM) [3] | Cell Proliferation activity (IC50 <30 μM) [4]

Cc1noc(C)c1-c1cc(N)c(=O)n(Cc2ccc(F)cc2)c1 [Example 180, 3-amino-5-(3,5-dimethylisoxazol-4-yl)-1-(4-fluorobenzyl)pyridin-2(1H)-one]
Active: FRET activity (IC50 <30 μM) BRD4(1) [1] | c-myc activity (IC50 <30 μM) [2] | ApoA-1 activity (EC170 <30 μM) [3] | Cell Proliferation activity (IC50 <30 μM) [4]

Cc1noc(C)c1-c1cc(N)c(=O)n(Cc2ccsc2)c1 [Example 219, 3-amino-5-(3,5-dimethylisoxazol-4-yl)-1-(thiophen-3-ylmethyl)pyridin-2(1H)-one]
Active: FRET activity (IC50 <30 μM) BRD4(1) [1] | c-myc activity (IC50 <30 μM) [2] | ApoA-1 activity (EC170 <30 μM) [3] | Cell Proliferation activity (IC50 <30 μM) [4]

Cc1noc(C)c1-c1cc(N)c(=O)n(Cc2ccc(Br)cc2)c1 [Example 241, 3-Amino-1-(4-bromobenzyl)-5-(3,5-dimethylisoxazol-4-yl)pyridin-2(1H)-one]
Active: FRET activity (IC50 <30 μM) BRD4(1) [1] | c-myc activity (IC50 <30 μM) [2] | ApoA-1 activity (EC170 <30 μM) [3] | Cell Proliferation activity (IC50 <30 μM) [4]
